Measured values taken from US20240368168A1, “SARM1 ENZYME ACTIVITY INHIBITOR AND APPLICATION THEREOF” (ARTIVILA BIOPHARMA, priority 2021, published 2024).
Structures can show the parent of a compound that is named as a salt.

Columns and labels:
dN-SARM1 protein = biological target: T1, dN-SARM1 protein (Homo sapiens, UniProt Q6SZW1); assay: In vitro biochemical assay for inhibiting SARM1 enzymatic activity (IC50), PC6 fluorescence method; settings: 50 μM NAD, 50 μM PC6, 50 μM NMN activator
T1 construct: the N-terminal mitochondrial localization signal peptide of SARM1 was removed
T1 sequence (Q6SZW1 28-724): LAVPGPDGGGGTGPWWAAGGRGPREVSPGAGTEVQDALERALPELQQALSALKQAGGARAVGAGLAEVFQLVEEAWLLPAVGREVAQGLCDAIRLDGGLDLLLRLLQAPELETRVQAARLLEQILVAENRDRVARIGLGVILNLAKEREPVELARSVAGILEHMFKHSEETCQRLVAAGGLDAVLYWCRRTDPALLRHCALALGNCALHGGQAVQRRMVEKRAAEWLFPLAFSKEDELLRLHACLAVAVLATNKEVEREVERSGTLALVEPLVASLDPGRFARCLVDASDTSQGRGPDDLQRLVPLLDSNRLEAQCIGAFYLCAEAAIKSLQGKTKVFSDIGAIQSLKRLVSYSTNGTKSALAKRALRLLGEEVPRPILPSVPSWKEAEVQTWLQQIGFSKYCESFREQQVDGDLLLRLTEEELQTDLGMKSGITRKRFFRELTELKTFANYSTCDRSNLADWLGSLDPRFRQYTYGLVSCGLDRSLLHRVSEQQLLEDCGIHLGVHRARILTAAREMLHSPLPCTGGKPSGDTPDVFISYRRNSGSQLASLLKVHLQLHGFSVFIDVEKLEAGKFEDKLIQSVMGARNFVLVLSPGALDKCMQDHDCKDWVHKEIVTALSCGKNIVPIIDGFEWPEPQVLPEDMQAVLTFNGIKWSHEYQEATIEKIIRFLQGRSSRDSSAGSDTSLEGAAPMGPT
Outline: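 dN-SARM1 (0.05 μg/ml, 50 mM Tris-HCl pH 7.5) preincubated 10 min at room temperature with compound in serial dilution from 200 μM. Reaction started with final 50 μM NAD, 50 μM PC6 substrate and 50 μM NMN activator, 30 min at room temperature. PC6 fluorescence (ex 390/em 520 nm) rate gives activity; IC50 derived.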

[1] = biological target: T2, SARM1 protein in iSARM1 (HEK293) cells (Homo sapiens, UniProt Q6SZW1); assay: Inhibitory activity in inducible SARM1 overexpressing cell line, intracellular cADPR level; format: cell-based; settings: activator CZ-48 100 μM, cADPR content
T2 construct: The full-length SARM1 was synthesized into the pUC57 plasmid by WZ Biosciences Inc., and PCR was performed using pUC57-SARM1 as a DNA template
T2 sequence (Q6SZW1 28-724): T1 sequence (Q6SZW1 28-724)
Experimental: In this example, the gene sequence of SARM1 was amplified using PCR, and constructed into pInducer20-neo plasmid. pInducer20-SARM1 virus was packaged in a liposome and infected HEK293 to obtain an inducible SARM1-overexpressing cell line, which was labeled as iSARM1 (HEK293). The specific preparation was as follows:
First, a 96-well culture plate was treated with 0.05 mg/ml polylysine for 5 minutes and washed once with PBS. 3×10^4 iSARM1 (HEK293) cells were plated into the 96-well plate and cultured overnight in a 37° C. and 5% incubator. The next day, the cells were added with an inhibitor with a final concentration of 50 μM, incubated in the incubator for 1.5 hours, added with activator CZ-48 with a final concentration of 100 μM, and incubated for 16 hours. Meanwhile, the cells without adding CZ-48 or without adding drug were set as control group. Finally, the intracellular cADPR level was detected to represent the activity of SARM1, and the inhibition rate of SARM1 in cells by 50 μM inhibitor was calculated.
The cADPR measurement was performed as follows. First, the cells were washed once with PBS, and added with 150 μl of pre-cooled 0.6M perchloric acid (PCA) to quickly lyse the cells and precipitate the protein. The PCA supernatant was transferred to a 1.5 ml centrifuge tube. The protein in the culture medium was dissolved again with 100 μl of 1M NaOH. The supernatant was added with 0.5 ml of organic reagent mixture (trioctylamine:chloroform=1:3) to extract PCA from water. After sufficient shaking, the mixture was centrifuged at 12,000 rpm for 10 minutes. The solution was divided into 3 layers: the upper aqueous phase, containing the small molecules of interest; the lower organic phase, in which PCA was dissolved; and a thin protein layer between the upper and lower layers. The upper layer was transferred to a new centrifuge tube, added with 1M Tris-Mg at a ratio of 1:100 (1M Tris (pH 8.0): 1M MgCl2=9:1), added with NADase at a ratio of 1:250, and treated at 37° C. overnight to remove NAD^+ from the mixed solution. After the treatment was completed, the mixed solution was filtered using Millipore's 10 K 96-well filter plate to remove NADase.
The cADPR content in the solution was determined through Cycling analysis method. The specific steps were as follows: 20 μl of the sample to be tested or the cADPR standard was taken and added to a 96-well opaque white plate. Preparation of reaction solution: 9.6 ml of PBS (pH 7.4), 200 μl of ethanol, 150 μl of 1 mg/ml AD, 10 μl of 10 mM FMN, 5 μl of 18 mg/ml Diaphorase, 10 μl of 10 mM Resazurin, and 100 μl of 1M Nam. Half of the reaction solution was divided and added with 0.2 μg/ml cyclase. The reaction solution without adding cyclase was used as control experiment. Each sample was divided into two groups, 3 replicates in each group. The reaction solutions containing or not containing cyclase were added to each group to perform the reaction. The reaction kinetic curve within 30 minutes was recorded (Ex:Em=544/599). The average slope of the reaction was calculated. Conversion was performed according to cADPR standard to obtain the accurate cADPR content. A curve of intracellular cADPR content vs corresponding inhibitor concentration was plotted. The half inhibitory concentration of the inhibitor was calculated.

## CC(C)OCCOCC(=O)Nc1cccc(-c2cnc3ccc(N(C)C(=O)OC(C)(C)C)cn23)c1 [Compound 247]
dN-SARM1 protein
  IC50: 1 to 10 µM
[1]
  EC50: < 1 µM

## CN(C(=O)OC(C)(C)C)c1ccc2ncc(-c3cc4cc[nH]c4cn3)n2c1 [Compound 161, tert-butyl (3-(1H-pyrrolo[2,3-c]pyridin-5-yl)imidazo[1,2-a]pyridin-6-yl)(methyl)carbamate]
dN-SARM1 protein
  IC50: < 1 µM
[1]
  EC50: 1 to 10 µM

## CNC(=O)c1cccc(-c2cnc3ccc(N(C)C(=O)OC(C)(C)C)cn23)c1 [Compound 276]
dN-SARM1 protein
  IC50: 1 to 10 µM
[1]
  EC50: 1 to 10 µM

## O=C(Nc1cccc(-c2cnc3ccc(N4CCOCC4)cn23)c1)[C@H]1C[C@H](N2CCOCC2)C1 [Compound 231]
dN-SARM1 protein
  IC50: 1 to 10 µM
[1]
  EC50: 1 to 10 µM

## CN(C(=O)OC(C)(C)C)c1ccc2ncc(-c3cccc4cn[nH]c34)n2c1 [Compound 259]
dN-SARM1 protein
  IC50: < 1 µM
[1]
  EC50: 1 to 10 µM

## CN(C(=O)OC(C)(C)C)c1ccc2ncc(-c3cccc(NC(=O)COCCOCc4ccccc4)c3)n2c1 [Compound 244]
dN-SARM1 protein
  IC50: 1 to 10 µM
[1]
  EC50: < 1 µM

## CN(C(=O)OC(C)(C)C)c1ccc2ncc(-c3cccc(O)c3)n2c1 [Compound 272]
dN-SARM1 protein
  IC50: 1 to 10 µM
[1]
  EC50: 1 to 10 µM

## CNc1ccc2ncc(-c3cccs3)n2c1 [Compound 69]
dN-SARM1 protein
  IC50: 1 to 10 µM
[1]
  EC50: 1 to 10 µM

## CN(C(=O)OC(C)(C)C)c1ccc2ncc(-c3cccc4c3CNC4=O)n2c1 [Compound 256]
dN-SARM1 protein
  IC50: < 1 µM
[1]
  EC50: 1 to 10 µM

## COC(=O)c1cccc(-c2cnc3ccc(N(C)C(=O)C(C)(C)C)cn23)c1 [Compound 301]
dN-SARM1 protein
  IC50: < 1 µM
[1]
  EC50: 1 to 10 µM

## Nc1cccc(/C=C/CNc2ccc3ncc(-c4ccccc4)n3c2)c1 [Compound 220]
dN-SARM1 protein
  IC50: 1 to 10 µM
[1]
  EC50: 1 to 10 µM

## CNc1ccc2ncc(-c3cccc(NC(=O)C4CCOCC4)n3)n2c1 [Compound 171]
dN-SARM1 protein
  IC50: < 1 µM
[1]
  EC50: < 1 µM

## Ic1cnc2ccc(-n3cccn3)cn12 [Compound 201, 3-iodo-6-(1H-pyrazol-1-yl)imidazo[1,2-a]pyridine]
dN-SARM1 protein
  IC50: 1 to 10 µM
[1]
  EC50: < 1 µM

## CN(C(=O)OC(C)(C)C)c1ccc2ncc(-c3cccs3)n2c1 [Compound 12]
dN-SARM1 protein
  IC50: 1 to 10 µM
[1]
  EC50: < 1 µM

## CN(C(=O)OC(C)(C)C)c1ccc2ncc(-c3ccncc3)n2c1 [Compound 17]
dN-SARM1 protein
  IC50: 1 to 10 µM
[1]
  EC50: 1 to 10 µM

## CNc1ccc2ncc(-c3ccccc3)n2c1 [Compound 65, N-methyl-3-phenylimidazo[1,2-a]pyridin-6-amine]
dN-SARM1 protein
  IC50: < 1 µM
[1]
  EC50: 1 to 10 µM

## CNc1ccc2ncc(-c3cccc(N(C)C(=O)C4CCOCC4)c3)n2c1 [Compound 159]
dN-SARM1 protein
  IC50: < 1 µM
[1]
  EC50: 1 to 10 µM

## Cc1ncsc1-c1ccc(CNC(=O)[C@@H]2C[C@@H](O)CN2C(=O)[C@@H](NC(=O)COCCOCCOCC(=O)Nc2cccc(-c3cnc4ccc(N(C)C(=O)OC(C)(C)C)cn34)c2)C(C)(C)C)cc1 [Compound 119, Tert-butyl (3-(3-((S)-13-((2S,4R)-4-hydroxy-2-((4-(4-methylthiazol-5-yl)benzyl)carbamoyl)pyrrolidin-1-carbonyl)-14,14-dimethyl-11-oxo-3,6,9-trioxa-12-azaglutaramide)phenyl)imidazo[1,2-a]pyridin-6-yl)(methyl)carbamate]
dN-SARM1 protein
  IC50: < 1 µM
[1]
  EC50: 1 to 10 µM

## COc1ccc(-c2cnc3ccc(N(C)C(=O)OC(C)(C)C)cn23)cc1 [Compound 14]
dN-SARM1 protein
  IC50: 1 to 10 µM
[1]
  EC50: 1 to 10 µM

## CN(C(=O)C1CC1)c1ccc2ncc(-c3cccc(NC(=O)C4CCOCC4)c3)n2c1 [Compound 307]
dN-SARM1 protein
  IC50: < 1 µM
[1]
  EC50: 1 to 10 µM

## CNc1ccc2ncc(-c3cccc(OCCOCc4ccccc4)c3)n2c1 [Compound 157]
dN-SARM1 protein
  IC50: 1 to 10 µM
[1]
  EC50: 1 to 10 µM

## CN(C(=O)OC(C)(C)C)c1ccc2ncc(-c3ccc(S(N)(=O)=O)cc3)n2c1 [Compound 6]
dN-SARM1 protein
  IC50: 1 to 10 µM
[1]
  EC50: < 1 µM

## CC(C)(C)OC(=O)Nc1ccc2ncc(-c3cccc(NC(=O)COCCOCc4ccccc4)c3)n2c1 [Compound 240]
dN-SARM1 protein
  IC50: < 1 µM
[1]
  EC50: < 1 µM

## CNc1ccc2ncc(-c3cccc(NC(=O)COCCOCC(=O)N[C@H](C(=O)N4C[C@H](O)C[C@H]4C(=O)NCc4ccc(-c5scnc5C)cc4)C(C)(C)C)c3)n2c1 [Compound 114, (2S,4R)-1-((S)-3,3-dimethyl-2-(2-(2-(2-((3-(6-(methylamino)imidazo[1,2-a]pyridin-3-yl)phenyl)amino)-2-oxoethoxy)ethoxy)acetamido)butyryl)-4-hydroxy-N-(4-(4-methylthiazol-5-yl)benzyl)pyrrolidin-2-carboxamide hydrochloride]
dN-SARM1 protein
  IC50: < 1 µM
[1]
  EC50: 1 to 10 µM

## O=C(Cc1ccc(Cl)cc1)Nc1cccn2c(-c3ccncc3)cnc12 [Compound 234]
dN-SARM1 protein
  IC50: 1 to 10 µM
[1]
  EC50: 1 to 10 µM

## CN(C(=O)OC(C)(C)C)c1ccc2ncc(-c3nn4ccnc4s3)n2c1 [Compound 168]
dN-SARM1 protein
  IC50: < 1 µM
[1]
  EC50: 1 to 10 µM

## CN(C(=O)OC(C)(C)C)c1ccc2ncc(-c3cccc(NC(=O)[C@@H]4CCOC4)c3)n2c1 [Compound 238]
dN-SARM1 protein
  IC50: < 1 µM
[1]
  EC50: < 1 µM

## Cc1ccccc1-c1cnc2ccc(N(C)C(=O)OC(C)(C)C)cn12 [Compound 10]
dN-SARM1 protein
  IC50: 1 to 10 µM
[1]
  EC50: < 1 µM

## Cc1ncsc1-c1ccc(CNC(=O)[C@@H]2C[C@@H](O)CN2C(=O)[C@@H](NC(=O)COCCOCC(=O)Nc2cccc(-c3cnc4ccc(N(C)C(=O)OC(C)(C)C)cn34)c2)C(C)(C)C)cc1 [Compound 113]
dN-SARM1 protein
  IC50: 1 to 10 µM
[1]
  EC50: 1 to 10 µM
